Assay results taken from patent publication US20070265306A1, “4-[(3-fluorophenoxy)phenylmethyl]piperidine methanesulfonate: uses, process of synthesis and pharmaceutical compositions” (priority 2006, published 2007).
Structures can show the parent of a compound that is named as a salt. Where two headings read alike, the source gives them in different places.

How the values were obtained:
hygroscopicity = format: physicochemical
social interaction time = conditions: rats, 14 days, 30 mg kg(−1) day(−1), p. o.; cited from earlier work
[1] = tested on: apomorphine-induced hypothermia; conditions: mice, orally administered, acute; cited from earlier work
[2] = tested on: immobility in the forced swimming test; conditions: mice, 30 mg/kg, p.o.; cited from earlier work
[3] = tested on: hyperactivity induced by olfactory bulbectomy; conditions: rats, chronic administration 14 days, 30 mg kg(−1) day(−1), p. o.; cited from earlier work
[4] = tested on: immobility in the forced swimming test; conditions: rats, 30 mg/kg, p.o.; cited from earlier work
[5] = tested on: dorsal raphe serotonergic neurones; conditions: in vivo; cited from earlier work
[6] = tested on: immobility in the tail suspension test; conditions: mice, orally administered, acute; cited from earlier work
5-HTP-induced syndrome = conditions: mice, orally administered, acute; cited from earlier work
[7] = as mentioned in U.S. Pat. No. 6,518,284 B2 and EP1002794; cited from earlier work
[8] = studies of stability under forced conditions; format: physicochemical
Method: Additionally, the compound of formula I has shown excellent stability properties. The compound of formula I has remained stable for at least 6 months in studies of stability under forced conditions at 50 and 60° C., as well as at 40° C. and 75% humidity. This represents more than 2 years of stability under normal conditions.

With `Fc1cccc(O[C@H](c2ccccc2)C2CCNCC2)c1` (as salt: fumaric acid salt) [(S)-4-[(3-fluorophenoxy)phenylmethyl]piperidine] as the compound, how does the melting point read?
The melting point was 105 to 108 °C.

With `Cl.Fc1cccc(O[C@H](c2ccccc2)C2CCNCC2)c1` [(S)-4-[(3-fluorophenoxy)phenylmethyl]piperidine hydrochloric acid salt] as the compound, how does the hygroscopicity (hygroscopicity) read?
The hygroscopicity was “hygroscopic”.

What about the melting point of the same compound?
The melting point was 55 to 60 °C.

For `Fc1cccc(O[C@H](c2ccccc2)C2CCNCC2)c1` [(S)-4-[(3-fluorophenoxy)phenylmethyl]piperidine], which social interaction time (social interaction time) is on record?
The social interaction time was “significantly increases”.

And the “ED50, antagonism of hypothermia induced by a high dose of apomorphine” value [1]?
The value was 2 mg/kg.

What about the “immobility in the forced swimming test” value [2] of the same compound?
The value was “decreases the immobility”.

What about the “hyperactivity induced by olfactory bulbectomy” value [3] of the same compound?
The value was “attenuates the hyperactivity”.

What about the “immobility in the forced swimming test” value [4] of the same compound?
The value was “decreases the immobility”.

And the “ED50, decrease of electrical activity of dorsal raphe serotonergic neurones” value [5]?
The value was 0.5303 mg/kg.

And the “MED, reduction of immobility in the tail suspension test” value [6]?
The value was 10 mg/kg.

And the “minimal effective dose (MED), potentiation of 5-HTP-induced syndrome” value (5-HTP-induced syndrome)?
Its value is 10 mg/kg.

With `Fc1cccc(OC(c2ccccc2)C2CCNCC2)c1` (racemic) [4-[(3-fluorophenoxy)phenylmethyl]piperidine] as the compound, how does the solubility in water [7] read?
Its solubility in water is “insoluble in water”.

For `Fc1cccc(O[C@H](c2ccccc2)C2CCNCC2)c1.O=S(=O)(O)O` [(S)-4-[(3-fluorophenoxy)phenylmethyl]piperidine sulphuric acid salt], which hygroscopicity (hygroscopicity) is on record?
Its hygroscopicity is “hygroscopic”.

For `CS(=O)(=O)O.Fc1cccc(OC(c2ccccc2)C2CCNCC2)c1` (stereo not drawn) [compound of formula I, 4-[(3-fluorophenoxy)phenylmethyl]piperidine methanesulfonic acid salt], which hygroscopicity (hygroscopicity) is on record?
The hygroscopicity was “not hygroscopic”.

What about the “time remained stable under forced conditions” value (shortened to “time remained stable”) ([8]; 40° C. and 75% humidity) of the same compound?
Its value is “at least 6 months”.

And the “time remained stable” value ([8]; 50° C.)?
Its value is “at least 6 months”.

And the “time remained stable” value ([8]; 60° C.)?
Its value is “at least 6 months”.

What about the “stability under normal conditions” value ([8]; normal conditions, extrapolated from forced conditions) of the same compound?
Its value is “more than 2 years”.
